Source: patent US11395857B2, “Radiolabeled melanocortin 1 receptor-specific alpha-melanocyte-stimulating hormone analogues for imaging or therapy” (PROVINCIAL HEALTH SERVICES AUTHORITY, priority 2018, dated 2022)
Where two headings read alike, the source gives them in different places. One block for each compound: values may come before it.

Key:
SK-MEL-1 human melanoma = assay: SPECT/CT imaging of mice bearing SK-MEL-1 human melanoma; assay type: in vivo, NRG mice; conditions: 24 h p.i.
Procedure: SPECT/CT imaging experiments were conducted using the same conditions as described in Example 3. […] (FIG. 6).

[1] = In vivo stability in mouse urine at 1 h p.i. (radio-HPLC); set-up: species or system C57BL/6J mice
Procedure: All animal experiments were conducted in according to the guidelines established by Canadian Council on Animal Care and approved by Animal Ethics Committee of the University of British Columbia. Mice were housed under pathogen-free conditions and kept on twelve hours light and twelve hours dark cycle in the Animal Research Centre, BC Cancer Research Centre, Vancouver, Canada. C57BL/6J mice were anesthetized by inhalation with 2% isoflurane in 2.0 L/min of oxygen, and approximately 4-6 MBq of [^68Ga]Ga-CCZ01099 or [^68Ga]Ga-CCZ01048 was injected intravenously. The mice were allowed to recover and roam freely in their cages. At 1 h post-injection (p.i.), the mice were euthanized by CO2 inhalation and their urine was collected and analyzed on HPLC for metabolite using the conditions described above. In vivo urine stability of [^68Ga]Ga-CCZ01099 and [^68Ga]Ga-CCZ01048 were 34.0±10.4% and ≥98.0% (n≥3), respectively.
The in vivo stability tests in mouse urine were performed as described in Example 1. […] With systematic reduction in the number of N-methylations for the αMSH analogues, a decrease in in vivo stability was observed.

[2] = Biodistribution of 177Lu-labeled αMSH analogues in mice bearing B16F10 mouse melanoma; assay type: in vivo, C57BL/6J mice; conditions: mouse, iv, total radioactivity, C57BL/6J mice, B16F10 melanoma
Procedure: (§1) The B16-F10 mouse melanoma cells were cultured and inoculated in mice as described in Example 1.
(§2) For biodistribution studies, approximately 1-2 MBq of ^177Lu-labeled αMSH analogues via tail vein under anesthesia. At 1, 4, 24, and 120 h p.i., the mice were euthanized by CO2 inhalation. Organs/tissues were harvested and the radioactivity was measured as described in Example 1.

B16F10 mouse melanoma = assay: as above; assay type: in vivo, C57BL/6J mice; conditions: C57BL/6J mice, B16F10 melanoma
Procedure: as §1, §2

Tumour uptake / retention in SPECT images (SK-MEL-1 human melanoma): showed improved the tumour retention
Structure (SMILES): CCCC[C@H](NC(=O)CN1CCC(NC(=O)[C@H](CCCCNC(=O)CN2CCN(CC(=O)O)CCN(CC(=O)O)CCN(CC(=O)O)CC2)NC(=O)CNC(=O)CCCc2ccc(I)cc2)CC1)C(=O)N[C@H]1CC(=O)NCCCC[C@@H](C(N)=O)N(C)C(=O)[C@H](Cc2c[nH]c3ccccc23)NC(=O)[C@H](CCCNC(=N)N)N(C)C(=O)[C@@H](Cc2ccccc2)NC(=O)[C@H](Cc2c[nH]cn2)NC1=O [CCZ01148]

In vivo urine stability, intact tracer [1]: 92.6 ± 1.6%
Structure (SMILES): CCCC[C@H](NC(=O)CN1CCC(NC(=O)CN2CCN(CC(=O)O)CCN(CC(=O)O)CCN(CC(=O)O)CC2)CC1)C(=O)N[C@H]1CC(=O)NCCCC[C@@H](C(N)=O)N(C)C(=O)[C@H](Cc2c[nH]c3ccccc23)N(C)C(=O)[C@H](CCCNC(=N)N)N(C)C(=O)[C@@H](Cc2ccccc2)NC(=O)[C@H](Cc2c[nH]cn2)NC1=O [[^68Ga]Ga-CCZ01103, metal not drawn]

In vivo urine stability, intact tracer [1]: 92.5 ± 2.1%
Structure (SMILES): CCCC[C@H](NC(=O)CN1CCC(NC(=O)CN2CCN(CC(=O)O)CCN(CC(=O)O)CCN(CC(=O)O)CC2)CC1)C(=O)N[C@H]1CC(=O)NCCCC[C@@H](C(N)=O)NC(=O)[C@H](Cc2c[nH]c3ccccc23)N(C)C(=O)[C@H](CCCNC(=N)N)N(C)C(=O)[C@@H](Cc2ccccc2)NC(=O)[C@H](Cc2c[nH]cn2)NC1=O [[^68Ga]Ga-CCZ01104, metal not drawn]

In vivo urine stability, intact tracer [1]: 65.8 ± 2.9%
Structure (SMILES): CCCC[C@H](NC(=O)CN1CCC(NC(=O)CN2CCN(CC(=O)O)CCN(CC(=O)O)CCN(CC(=O)O)CC2)CC1)C(=O)N[C@H]1CC(=O)NCCCC[C@@H](C(N)=O)N(C)C(=O)[C@H](Cc2c[nH]c3ccccc23)N(C)C(=O)[C@H](CCCNC(=N)N)NC(=O)[C@@H](Cc2ccccc2)NC(=O)[C@H](Cc2c[nH]cn2)NC1=O [[^68Ga]Ga-CCZ01105, metal not drawn]

In vivo urine stability, intact tracer [1]: 82.5 ± 1.8%
Structure (SMILES): CCCC[C@H](NC(=O)CN1CCC(NC(=O)CN2CCN(CC(=O)O)CCN(CC(=O)O)CCN(CC(=O)O)CC2)CC1)C(=O)N[C@H]1CC(=O)NCCCC[C@@H](C(N)=O)N(C)C(=O)[C@H](Cc2c[nH]c3ccccc23)NC(=O)[C@H](CCCNC(=N)N)N(C)C(=O)[C@@H](Cc2ccccc2)NC(=O)[C@H](Cc2c[nH]cn2)NC1=O [[^68Ga]Ga-CCZ01106] [metal not drawn]

In vivo urine stability, intact tracer [1]: 41.4 ± 3.9%
Structure (SMILES): CCCC[C@H](NC(=O)CN1CCC(NC(=O)CN2CCN(CC(=O)O)CCN(CC(=O)O)CCN(CC(=O)O)CC2)CC1)C(=O)N[C@H]1CC(=O)NCCCC[C@@H](C(N)=O)NC(=O)[C@H](Cc2c[nH]c3ccccc23)NC(=O)[C@H](CCCNC(=N)N)N(C)C(=O)[C@@H](Cc2ccccc2)NC(=O)[C@H](Cc2c[nH]cn2)NC1=O [[^68Ga]Ga-CCZ01114, metal not drawn]

tissue uptake at 1 h ([2]; male, seminal glands, 1 h p.i., read-out: Biodistribution, Seminal glands): 0.16 ± 0.03 %ID/g | tissue uptake at 1 h ([2]; male, testes, 1 h p.i., read-out: Biodistribution, Testes): 0.27 ± 0.04 %ID/g | tissue uptake at 4 h ([2]; male, testes, 4 h p.i., read-out: Biodistribution, Testes): 0.16 ± 0.02 %ID/g | tissue uptake at 1 h ([2]; adrenal glands, 1 h p.i., read-out: Biodistribution, Adrenal glands): 0.38 ± 0.38 %ID/g | tissue uptake at 1 h ([2]; bone, 1 h p.i., read-out: Biodistribution, Bone): 0.19 ± 0.01 %ID/g | tissue uptake at 1 h ([2]; heart, 1 h p.i., read-out: Biodistribution, Heart): 0.18 ± 0.02 %ID/g | tissue uptake at 1 h ([2]; intestine, 1 h p.i., read-out: Biodistribution, Intestine): 0.33 ± 0.06 %ID/g | tissue uptake at 4 h ([2]; intestine, 4 h p.i., read-out: Biodistribution, Intestine): 0.49 ± 0.46 %ID/g | tissue uptake at 24 h ([2]; intestine, 24 h p.i., read-out: Biodistribution, Intestine): 0.27 ± 0.23 %ID/g | tissue uptake at 1 h ([2]; kidneys, 1 h p.i., read-out: Biodistribution, Kidneys): 5.36 ± 0.32 %ID/g | tissue uptake at 4 h ([2]; kidneys, 4 h p.i., read-out: Biodistribution, Kidneys): 4.89 ± 1.06 %ID/g | tissue uptake at 24 h ([2]; kidneys, 24 h p.i., read-out: Biodistribution, Kidneys): 1.78 ± 0.32 %ID/g | tissue uptake at 120 h ([2]; kidneys, 120 h p.i., read-out: Biodistribution, Kidneys): 0.36 ± 0.09 %ID/g | tissue uptake at 1 h ([2]; liver, 1 h p.i., read-out: Biodistribution, Liver): 0.54 ± 0.08 %ID/g | tissue uptake at 4 h ([2]; liver, 4 h p.i., read-out: Biodistribution, Liver): 0.48 ± 0.1 %ID/g | tissue uptake at 24 h ([2]; liver, 24 h p.i., read-out: Biodistribution, Liver): 0.34 ± 0.05 %ID/g | tissue uptake at 120 h ([2]; liver, 120 h p.i., read-out: Biodistribution, Liver): 0.16 ± 0.04 %ID/g | tissue uptake at 1 h ([2]; lungs, 1 h p.i., read-out: Biodistribution, Lungs): 0.73 ± 0.4 %ID/g | tissue uptake at 1 h ([2]; spleen, 1 h p.i., read-out: Biodistribution, Spleen): 0.29 ± 0.02 %ID/g | tissue uptake at 4 h ([2]; spleen, 4 h p.i., read-out: Biodistribution, Spleen): 0.22 ± 0.06 %ID/g | tissue uptake at 1 h ([2]; stomach, 1 h p.i., read-out: Biodistribution, Stomach): 0.59 ± 0.16 %ID/g | tissue uptake at 4 h ([2]; stomach, 4 h p.i., read-out: Biodistribution, Stomach): 0.56 ± 0.08 %ID/g | tissue uptake at 1 h ([2]; thyroid, 1 h p.i., read-out: Biodistribution, Thyroid): 2.57 ± 0.62 %ID/g | tissue uptake at 4 h ([2]; thyroid, 4 h p.i., read-out: Biodistribution, Thyroid): 2.16 ± 0.4 %ID/g | tissue uptake at 24 h ([2]; thyroid, 24 h p.i., read-out: Biodistribution, Thyroid): 1.24 ± 0.32 %ID/g | tissue to tissue ratio at 1 h ([2]; tumour/blood, 1 h p.i., read-out: Tumour/blood): 32.4 ± 7.58 | tissue to tissue ratio at 4 h ([2]; tumour/blood, 4 h p.i., read-out: Tumour/blood): 206 ± 73.7 | tissue to tissue ratio at 24 h ([2]; tumour/blood, 24 h p.i., read-out: Tumour/blood): 530 ± 45.1 | tissue to tissue ratio at 120 h ([2]; tumour/blood, 120 h p.i., read-out: Tumour/blood): 233 ± 57.8 | tissue to tissue ratio at 1 h ([2]; tumour/kidney, 1 h p.i., read-out: Tumour/kidney): 3.04 ± 0.63 | tissue to tissue ratio at 4 h ([2]; tumour/kidney, 4 h p.i., read-out: Tumour/kidney): 3.65 ± 1.48 | tissue to tissue ratio at 24 h ([2]; tumour/kidney, 24 h p.i., read-out: Tumour/kidney): 2.25 ± 0.15 | tissue to tissue ratio at 120 h ([2]; tumour/kidney, 120 h p.i., read-out: Tumour/kidney): 1.14 ± 0.65 | tissue to tissue ratio at 1 h ([2]; tumour/muscle, 1 h p.i., read-out: Tumour/muscle): 126 ± 34.1 | tissue to tissue ratio at 4 h ([2]; tumour/muscle, 4 h p.i., read-out: Tumour/muscle): 561 ± 208 | tissue to tissue ratio at 24 h ([2]; tumour/muscle, 24 h p.i., read-out: Tumour/muscle): 239 ± 108 | tissue to tissue ratio at 120 h ([2]; tumour/muscle, 120 h p.i., read-out: Tumour/muscle): 80.9 ± 28.1 | excreta dose per gram or mL at 1 h ([2]; urine, 1 h p.i.): 110 ± 81.9 %ID/g | excreta dose per gram or mL at 4 h ([2]; urine, 4 h p.i.): 13.8 ± 10.2 %ID/g | excreta dose per gram or mL at 24 h ([2]; urine, 24 h p.i.): 1.99 ± 1.39 %ID/g | excreta dose per gram or mL at 120 h ([2]; urine, 120 h p.i.): 0.22 ± 0.05 %ID/g | Biodistribution, B16F10 tumour (B16F10 mouse melanoma; 1 h p.i.): 16.3 ± 3.75 % ID/g | Biodistribution, B16F10 tumour (B16F10 mouse melanoma; 4 h p.i.): 16.7 ± 3.86 % ID/g | Biodistribution, B16F10 tumour (B16F10 mouse melanoma; 24 h p.i.): 4.39 ± 1.36 % ID/g | Biodistribution, B16F10 tumour (B16F10 mouse melanoma; 120 h p.i.): 0.41 ± 0.21 % ID/g | Biodistribution, Blood (B16F10 mouse melanoma; 120 h p.i.): 0.00 ± 0.00 % ID/g
Structure (SMILES): CCCC[C@H](NC(=O)CN1CCC(NC(=O)CN2CCN(CC(=O)O)CCN(CC(=O)O)CCN(CC(=O)O)CC2)CC1)C(=O)N[C@H]1CC(=O)NCCCC[C@@H](C(N)=O)NC(=O)[C@H](Cc2c[nH]c3ccccc23)NC(=O)[C@H](CCCNC(=N)N)NC(=O)[C@@H](Cc2ccccc2)NC(=O)[C@H](Cc2c[nH]cn2)NC1=O [^177Lu-labeled CCZ01048, metal not drawn, reference compound]
